# Read-outs that look alike come from different tables or passages of the source.
# Columns and labels:
# [1] = molecular target: T1, Human FXIa (Homo sapiens, UniProt P03951); test: FXIa enzymatic activity (chromogenic S-2366; fluorescent assay for high potency); type: biochemical
# T1 construct: purchased Enzyme Research Labs or Haematologic Technologies Inc
# Method: Human FXIa activity (Enzyme Research Labs or Haematologic Technologies Inc.) was measured at room temperature in 96 well microtiter plates. The enzyme was incubated with drug for 3 minutes at an enzyme concentration of 0.5 nM in 145 mM NaCl, 5 mM KCl, 1 mg/mL PEG 8000,30 mM HEPES (pH 7.4). After the three minute incubation, 100 μM substrate, S-2366, (L-Pyroglut-Pro-Arg-pNA, Diapharma Group, Inc.) was added and the enzyme velocity was measured using a Molecular Devices Spectro Max Plus (405 nm wavelength) in kinetic mode and analyzed using SOFTmax Pro (ver 3.0) software. For routine compound evaluation, the fraction of control activity (FCA) was plotted as a function of the inhibitor concentration (I), and the curve was fit to the equation FCA /(1+[I]/IC50) to determine the IC50.
# A fluorescent assay was performed under similar conditions to evaluate FXIa activity of compounds with high potency (IC50<10 nM). A different substrate (D-Ile-Pro-Arg-AFC.2TFA) and a different concentration of enzyme (0.043 nM) was used. The enzyme velocity was measured using a Molecular Devices fMax fluorescent plate reader (400 nm excitation, 505 nm emission).
# [2] = molecular target: T2, Human TF:FVIIa (Homo sapiens, UniProt P08709); test: Selectivity assay TF:FVIIa; type: biochemical; conditions: Table 3
# T2 construct: purchased Enzyme Research Labs (FVIIa); Dade (Innovin, tissue factor)
# Method: Human TF:FVIIa activity was measured using isolated human FVIIa (Enzyme Research Labs) in the presence of recombinant human tissue Factor (Dade Innovin) in a buffer containing 20 mM HEPES, 150 mM NaCl, 5mM CaCl2, 1 mM CHAPS and 1 mg/mL PEG 6000 (pH to 7.4).
# [3] = molecular target: T3, human factor Xa (Homo sapiens, UniProt P00742); test: Selectivity assay factor Xa; type: biochemical; conditions: Table 3; read-out: IC50 (μM) FXa
# T3 construct: Factor IXa then converts Factor X to Factor Xa; purchased Kabi Vitrum
# [4] = molecular target: T4, Recombinant tissue plasminogen activator (Homo sapiens, UniProt P00750); test: Selectivity assay tissue plasminogen activator; type: biochemical; conditions: Table 3
# T4 construct: purchased Genentech
# [5] = system: rat plasma; test: PT clotting time, rat plasma; type: biochemical; conditions: up to 100 μM
# Method: The term “PT” time as used herein refers to prothrombin times which is intended to refer to the time elapsed between formation of an assay solution and detection of clot formation in the assay solution with use of a PT assay, i.e., an assay employing thromboplastin reagents that are used for evaluating blood coagulation associated with the extrinsic pathway.
# (§1) PT and APTT clotting times were determined as described in Balasubramanian et al., J. Med. Chem., Vol. 36 (1993), at pp. 300-03, incorporated herein by reference. The whole blood aggregation response of rat platelets to collagen was determined using the impedance procedure for a Model 560-CA Chrono-Log aggregometer (Havertown, Pa.).
# [6] = system: rat plasma; test: APTT clotting time, rat plasma; type: biochemical
# From the text: The term “APTT” as used herein means “activated partial thromboplastin times” which is intended to refer to the time elapsed between the formation of an assay solution and the detection of clot formation in the assay solution with use of an APTT assay, i.e., an assay employing an intrinsic pathway activator, such as micronized silica, and a phospholipid component of a thromboplastin reagent (without tissue factor protein) for evaluating coagulation associated with the intrinsic pathway.
# as §1
# [7] = system: renal cortex bleeding time; test: Renal cortex bleeding time (RCBT) model; type: in vivo; conditions: rat, i.v. 12+12 and 24+24 mg/kg+mg/kg/hr, pre- vs post-treatment, FIG. 5
# Method: (§2) Experimental Bleeding Time Two models of bleeding time were performed, namely, a renal cortex bleeding model (using template incision of the renal cortex), and a mesenteric artery bleeding model (using severance of small mesenteric arteries).
# In the renal cortex bleeding time (RCBT) model, both kidneys were exposed by a midline abdominal incision, and the renal capsules were removed to expose the bare renal cortex which was superfused with Ringer's solution maintained at 37° C. […] While observing under 3×-binocular magnifier, the time in sec from injury until bleeding stopped was recorded. Three bleeding times were determined on the right kidney before, and on the left kidney 15 min after, the start of test article infusion. […]
# Statistical Analysis In the venous and arterial thrombosis procedures, treatment effects on thrombus weight, baseline blood flow, and average blood flow during thrombosis were determined by analysis of variance with Dunnett's test for comparison to the vehicle group. […] Treatment effects on bleeding times were determined by analysis of variance with Dunnett's test for comparison to the vehicle group. Both post-treatment and pre-treatment bleeding times and the relative bleeding time increases in sec were analyzed. […]
# [8] = system: mesenteric artery bleeding time; test: Mesenteric artery bleeding time (MABT) model; type: in vivo; conditions: rat, i.v. 12+12 and 24+24 mg/kg+mg/kg/hr, pre- vs post-treatment, FIG. 6
# Method: as §2
# In the mesenteric artery bleeding time (MABT) model, the abdomen was opened via a midline incision and the small intestine was exteriorized. The jejunum was exposed, held in place with clamps and superfused with Ringer's solution maintained at 37° C. Small arteries that branch perpendicular to the mesenteric artery and course over the surface of the jejunum were observed through an SZH10 stereomicroscope (Olympus Corp., Lake Success, N.Y.). These vessels were punctured with a 30-gauge hypodermic needle and the time in sec from puncturing until bleeding stopped was recorded. Bleeding times were determined in 3-5 arteries before administration of test article and in 3-5 arteries 20 min after the start of test article infusion. […]
# Statistical Analysis In the venous and arterial thrombosis procedures, treatment effects on thrombus weight, baseline blood flow, and average blood flow during thrombosis were determined by analysis of variance with Dunnett's test for comparison to the vehicle group. […] Treatment effects on bleeding times were determined by analysis of variance with Dunnett's test for comparison to the vehicle group. […]
# T1 sequence (P03951 388-625 limits assumed): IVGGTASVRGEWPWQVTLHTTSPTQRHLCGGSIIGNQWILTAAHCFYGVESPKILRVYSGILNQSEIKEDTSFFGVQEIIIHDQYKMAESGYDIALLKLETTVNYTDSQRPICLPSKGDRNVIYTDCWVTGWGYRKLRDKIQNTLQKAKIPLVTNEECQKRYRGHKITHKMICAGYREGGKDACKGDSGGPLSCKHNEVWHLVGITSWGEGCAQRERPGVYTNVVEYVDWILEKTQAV
# T1 sequence (P03951 19-387 partner limits assumed): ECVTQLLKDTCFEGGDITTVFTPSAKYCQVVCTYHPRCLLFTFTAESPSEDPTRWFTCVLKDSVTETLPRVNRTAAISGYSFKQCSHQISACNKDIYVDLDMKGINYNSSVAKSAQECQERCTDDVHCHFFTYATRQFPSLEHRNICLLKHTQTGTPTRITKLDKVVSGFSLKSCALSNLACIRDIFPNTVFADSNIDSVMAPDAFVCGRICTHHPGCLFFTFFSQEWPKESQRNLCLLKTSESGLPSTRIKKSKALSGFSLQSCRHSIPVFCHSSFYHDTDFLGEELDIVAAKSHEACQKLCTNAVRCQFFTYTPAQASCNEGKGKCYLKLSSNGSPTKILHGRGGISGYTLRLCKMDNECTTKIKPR
# T4 sequence (P00750 36-562): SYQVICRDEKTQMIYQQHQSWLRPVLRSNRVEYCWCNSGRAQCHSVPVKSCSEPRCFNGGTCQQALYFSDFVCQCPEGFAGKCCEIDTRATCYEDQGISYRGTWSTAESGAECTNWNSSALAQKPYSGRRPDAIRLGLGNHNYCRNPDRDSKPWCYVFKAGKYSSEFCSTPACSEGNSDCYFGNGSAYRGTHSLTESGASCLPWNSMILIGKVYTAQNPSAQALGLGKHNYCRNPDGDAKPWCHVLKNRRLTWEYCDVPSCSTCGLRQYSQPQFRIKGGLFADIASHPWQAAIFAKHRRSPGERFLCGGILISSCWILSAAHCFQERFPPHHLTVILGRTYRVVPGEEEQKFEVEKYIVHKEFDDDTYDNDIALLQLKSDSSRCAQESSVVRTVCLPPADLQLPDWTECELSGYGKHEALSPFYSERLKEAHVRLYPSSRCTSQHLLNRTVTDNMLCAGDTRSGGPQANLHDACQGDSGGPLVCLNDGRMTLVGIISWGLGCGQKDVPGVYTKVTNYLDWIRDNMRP
# T3 sequence (P00742 235-488 limits assumed): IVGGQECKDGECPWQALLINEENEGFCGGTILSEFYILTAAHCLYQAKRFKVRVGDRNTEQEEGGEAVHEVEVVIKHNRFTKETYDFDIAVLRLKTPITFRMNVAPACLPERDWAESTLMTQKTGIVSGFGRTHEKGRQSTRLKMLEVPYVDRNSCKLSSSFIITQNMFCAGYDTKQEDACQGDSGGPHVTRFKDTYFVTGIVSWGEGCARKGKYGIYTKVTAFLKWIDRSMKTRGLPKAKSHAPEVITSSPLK
# T3 sequence (P00742 41-179 partner limits assumed): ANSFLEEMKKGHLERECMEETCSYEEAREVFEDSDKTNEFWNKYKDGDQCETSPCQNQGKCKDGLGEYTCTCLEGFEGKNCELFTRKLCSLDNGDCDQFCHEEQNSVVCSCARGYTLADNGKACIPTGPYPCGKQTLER
# T2 sequence (P08709 213-466 limits assumed): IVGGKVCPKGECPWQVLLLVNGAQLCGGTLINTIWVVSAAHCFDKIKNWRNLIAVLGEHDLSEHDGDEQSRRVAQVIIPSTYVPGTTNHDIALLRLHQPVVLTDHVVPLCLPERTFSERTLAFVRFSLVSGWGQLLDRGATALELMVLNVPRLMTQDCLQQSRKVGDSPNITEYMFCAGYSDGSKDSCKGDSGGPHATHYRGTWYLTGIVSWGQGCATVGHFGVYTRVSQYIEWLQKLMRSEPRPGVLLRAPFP
# T2 sequence (P08709 61-212 partner limits assumed): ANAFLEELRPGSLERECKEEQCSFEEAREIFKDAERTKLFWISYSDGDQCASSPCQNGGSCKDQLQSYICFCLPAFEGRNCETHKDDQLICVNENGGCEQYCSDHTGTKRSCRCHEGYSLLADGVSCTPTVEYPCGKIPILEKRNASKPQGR
# T2 sequence (P13726 33-295 partner): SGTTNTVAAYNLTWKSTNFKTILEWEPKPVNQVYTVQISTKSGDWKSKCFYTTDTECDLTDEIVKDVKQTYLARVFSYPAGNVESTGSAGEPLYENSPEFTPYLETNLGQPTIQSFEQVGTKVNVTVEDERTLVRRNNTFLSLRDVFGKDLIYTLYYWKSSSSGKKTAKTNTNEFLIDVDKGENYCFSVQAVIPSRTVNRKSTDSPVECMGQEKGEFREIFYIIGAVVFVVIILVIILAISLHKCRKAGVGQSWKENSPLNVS
smiles,measurement,setting,value
CC(C)(C)NC(=O)N1CCN(C(=O)N2C(=O)[C@H](CCCNC(=N)N)[C@H]2C(=O)O)CC1 [Example 4],IC50,"[1]; Table 1, Factor XIa, approximate, read-out: IC50(≅)",~0.0028 µM
same,IC50,"[1]; Table 3, read-out: IC50 (μM) FXIa",0.0028 µM
same,times more active than the FXa inhibitor for inhibiting Factor XIa,[1]; from Table 3 IC50 values,"more than 10,000 times"
same,times more active than the thrombin inhibitor (compound 16A) for inhibiting Factor XIa,[1]; from Table 3 IC50 values,"greater than 2,000 times"
same,IC50,[2],0.486 µM
same,IC50,[3],> 33 µM
same,IC50,[4],> 33 µM
same,"Clotting time PT (rat), concentration that doubles clotting time",[5],>100 µM
same,"Clotting time APTT (rat), concentration that doubles clotting time",[6],2.1 µM
same,effect on renal cortex bleeding times,[7],no effect
same,effect on mesenteric artery bleeding times,[8],no effect
